Measurements: ChEMBL document CHEMBL1201862, “PubChem BioAssay data set” (2004)
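A five-concentration, 48-hour dose response in 96-well plates underlies each endpoint, interpolated linearly between surrounding concentrations. Here, GI50 denotes the concentration required for 50% inhibition of growth.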 Calls of active or inactive are those of the source. No stated cut-off is given here; in the data, active = GI50 up to about 1.1 µM and inactive = higher.

Key:
Assay in all cases: NCI tumour cell line growth inhibition, 48 h
786-0 = test system: 786-0
ACHN = test system: ACHN
COLO 205 = test system: COLO 205
HOP-62 = test system: HOP-62
IGROV-1 = test system: IGROV-1
K562 = test system: K562
KM12 = test system: KM12
LOX IMVI = test system: LOX IMVI
MCF7 = test system: MCF7
MDA-N = test system: MDA-N
NCI-H460 = test system: NCI-H460
SK-OV-3 = test system: SK-OV-3
SNB-75 = test system: SNB-75
TK-10 = test system: TK-10
UACC-257 = test system: UACC-257
UACC-62 = test system: UACC-62
UO-31 = test system: UO-31
MOLT-4 = test system: MOLT-4
SR = test system: SR
CCRF-CEM = test system: CCRF-CEM

SMILES | GI50 (786-0) | GI50 (ACHN) | GI50 (COLO 205) | GI50 (HOP-62) | GI50 (IGROV-1) | GI50 (K562) | GI50 (KM12) | GI50 (LOX IMVI) | GI50 (MCF7) | GI50 (MDA-N) | GI50 (NCI-H460) | GI50 (SK-OV-3) | GI50 (SNB-75) | GI50 (TK-10) | GI50 (UACC-257) | GI50 (UACC-62) | GI50 (UO-31) | GI50 (MOLT-4) | GI50 (SR) | GI50 (CCRF-CEM)
NNC(=O)CS(=O)(=O)Nc1ncccn1 | > 100 µM (inactive) | > 100 µM (inactive) | > 100 µM (inactive) | > 100 µM (inactive) | > 100 µM (inactive) | > 100 µM (inactive) | > 100 µM (inactive) | > 100 µM (inactive) | > 100 µM (inactive) | > 100 µM (inactive) | > 100 µM (inactive) | > 100 µM (inactive) | > 100 µM (inactive) | 13.2 µM (inactive) | > 100 µM (inactive) | > 100 µM (inactive) | > 100 µM (inactive) | – | – | –
Cc1sc2nc(-c3ccc(Cl)c([N+](=O)[O-])c3)c(/C=N/NC(=N)N)n2c1C | 0.684 µM (active) | 1.46 µM (inactive) | 0.282 µM (active) | 0.471 µM (active) | 1.09 µM (active) | 2.39 µM (inactive) | 0.45 µM (active) | 0.585 µM (active) | 0.685 µM (active) | 0.893 µM (active) | 1.63 µM (inactive) | 1.75 µM (inactive) | – | 1.75 µM (inactive) | 1.29 µM (inactive) | 1.79 µM (inactive) | 1.65 µM (inactive) | 1.5 µM (inactive) | 0.229 µM (active) | –
CCCCCC(C)C[C@H]1CO[C@H](c2ccc[nH]2)N[C@H]1C(=O)OC (stereo not given in full) | > 100 µM (inactive) | > 100 µM (inactive) | > 100 µM (inactive) | > 100 µM (inactive) | > 100 µM (inactive) | – | > 100 µM (inactive) | > 100 µM (inactive) | > 100 µM (inactive) | > 100 µM (inactive) | > 100 µM (inactive) | > 100 µM (inactive) | – | > 100 µM (inactive) | > 100 µM (inactive) | > 100 µM (inactive) | – | > 100 µM (inactive) | – | > 100 µM (inactive)
COc1ccc(C(=O)/C=C/c2ccc(OCCSCCCCCCCCCCSCCOc3ccc(/C=C/C(=O)c4ccc(OC)cc4)cc3)cc2)cc1 | > 100 µM (inactive) | > 100 µM (inactive) | > 100 µM (inactive) | > 100 µM (inactive) | > 100 µM (inactive) | > 100 µM (inactive) | > 100 µM (inactive) | – | > 100 µM (inactive) | < 0.01 µM (active) | > 100 µM (inactive) | > 100 µM (inactive) | > 100 µM (inactive) | > 100 µM (inactive) | > 100 µM (inactive) | > 100 µM (inactive) | > 100 µM (inactive) | > 100 µM (inactive) | > 100 µM (inactive) | > 100 µM (inactive)
COC(=O)C1=C2SCc3cccc(c3)CSC3=C(C(=O)OC)SC(=C(S2)S1)S3 | > 100 µM (inactive) | > 100 µM (inactive) | > 100 µM (inactive) | > 100 µM (inactive) | – | > 100 µM (inactive) | > 100 µM (inactive) | – | > 100 µM (inactive) | 35.2 µM (inactive) | > 100 µM (inactive) | > 100 µM (inactive) | > 100 µM (inactive) | > 100 µM (inactive) | > 100 µM (inactive) | > 100 µM (inactive) | > 100 µM (inactive) | > 100 µM (inactive) | – | > 100 µM (inactive)
COC1C(=O)N(SC)C1c1ccccc1Cl (stereo not given) | 18.7 µM (inactive) | 18.8 µM (inactive) | 51.8 µM (inactive) | > 100 µM (inactive) | 18.7 µM (inactive) | 25.9 µM (inactive) | > 100 µM (inactive) | 42.2 µM (inactive) | 19.7 µM (inactive) | 34.6 µM (inactive) | > 100 µM (inactive) | > 100 µM (inactive) | – | > 100 µM (inactive) | > 100 µM (inactive) | 54.8 µM (inactive) | 17.5 µM (inactive) | 9.62 µM (inactive) | 18.6 µM (inactive) | 14.6 µM (inactive)
O=C1CC(=O)NC(NN2C(=O)/C(=C/c3ccc(Cl)c(Cl)c3)N=C2c2ccccc2)=N1 | 26.9 µM (inactive) | 40.2 µM (inactive) | 18.8 µM (inactive) | 23.9 µM (inactive) | 31.1 µM (inactive) | 13.7 µM (inactive) | 16.4 µM (inactive) | – | 16.7 µM (inactive) | 23.9 µM (inactive) | 15.7 µM (inactive) | 46.8 µM (inactive) | 24 µM (inactive) | 41.9 µM (inactive) | 34.2 µM (inactive) | 15.7 µM (inactive) | 29.6 µM (inactive) | 15.2 µM (inactive) | 11.7 µM (inactive) | 11.9 µM (inactive)
